Experimental data published in publication PMC3420359 (Journal of computer-aided molecular design, 2011).

Experiments:
rTRPV1 M547L = rTRPV1 M547L (Rattus norvegicus, UniProt O35433, M547L); test: biochemical; assay type: binding
rTRPV1 WT = rTRPV1 WT (Rattus norvegicus, UniProt O35433); test: biochemical; assay type: binding
rTRPV1 Y511F = rTRPV1 Y511F (Rattus norvegicus, UniProt O35433, Y511F); test: biochemical; assay type: binding
rTRPV1 T550S = rTRPV1 T550S (Rattus norvegicus, UniProt O35433, T550S); test: biochemical; assay type: binding
Chain of rTRPV1 T550S (O35433 whole entry T550S): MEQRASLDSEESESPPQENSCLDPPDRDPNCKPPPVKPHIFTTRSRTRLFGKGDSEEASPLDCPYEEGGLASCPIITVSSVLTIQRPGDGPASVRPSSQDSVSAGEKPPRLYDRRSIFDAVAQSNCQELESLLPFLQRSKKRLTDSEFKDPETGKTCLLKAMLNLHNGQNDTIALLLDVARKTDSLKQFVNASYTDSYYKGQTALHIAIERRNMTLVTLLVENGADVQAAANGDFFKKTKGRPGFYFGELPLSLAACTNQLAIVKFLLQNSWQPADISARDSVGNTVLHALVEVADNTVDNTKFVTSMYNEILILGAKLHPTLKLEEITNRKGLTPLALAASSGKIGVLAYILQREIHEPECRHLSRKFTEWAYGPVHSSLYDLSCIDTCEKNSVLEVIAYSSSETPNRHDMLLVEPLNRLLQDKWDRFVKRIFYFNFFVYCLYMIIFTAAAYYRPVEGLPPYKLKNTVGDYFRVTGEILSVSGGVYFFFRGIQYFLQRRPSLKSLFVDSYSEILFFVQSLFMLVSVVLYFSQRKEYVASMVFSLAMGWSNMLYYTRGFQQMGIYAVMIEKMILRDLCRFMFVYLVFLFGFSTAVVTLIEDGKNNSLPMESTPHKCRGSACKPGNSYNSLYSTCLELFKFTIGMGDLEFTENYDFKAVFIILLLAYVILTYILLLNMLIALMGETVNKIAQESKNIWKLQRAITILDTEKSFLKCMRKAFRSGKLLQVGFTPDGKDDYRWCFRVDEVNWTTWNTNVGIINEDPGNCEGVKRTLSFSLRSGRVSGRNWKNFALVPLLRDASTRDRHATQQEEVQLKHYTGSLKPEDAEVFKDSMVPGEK

rTRPV1 T550A = rTRPV1 T550A (Rattus norvegicus, UniProt O35433, T550A); test: biochemical; assay type: binding
Chain of rTRPV1 T550A (O35433 whole entry T550A): as the sequence (O35433 whole entry T550S) above, with S550A counted along it

rTRPV1 T550I = rTRPV1 T550I (Rattus norvegicus, UniProt O35433, T550I); test: biochemical; assay type: binding
Chain of rTRPV1 T550I (O35433 whole entry T550I): as the sequence (O35433 whole entry T550S) above, with S550I counted along it

TRPV1 = conditions: cited from earlier work

Chain of rTRPV1 WT (O35433 whole entry): as the sequence (O35433 whole entry T550S) above, with S550T counted along it
Chain of rTRPV1 Y511F (O35433 whole entry Y511F): as the sequence (O35433 whole entry T550S) above, with Y511F, S550T counted along it
Chain of rTRPV1 M547L (O35433 whole entry M547L): as the sequence (O35433 whole entry T550S) above, with M547L, S550T counted along it

SMILES | Kd (rTRPV1 M547L) [nM] | Kd (rTRPV1 WT) [nM] | Maximal binding capacity (rTRPV1 WT) [fmol/mg protein] | Ratio (rTRPV1 WT) | Kd (rTRPV1 Y511F) [nM] | Kd (rTRPV1 T550S) [nM] | Kd (rTRPV1 T550A) [nM] | Kd (rTRPV1 T550I) [nM] | Ki (TRPV1) [nM]
C=C(C)[C@]12C[C@@H](C)[C@@]34O[C@](Cc5ccccc5)(O[C@@H]1[C@@H]3C=C(COC(=O)Cc1ccc(O)c(OC)c1)C[C@]1(O)C(=O)C(C)=C[C@@H]41)O2 [RTX, resiniferatoxin] | 2.38 ± 0.24 | 0.203 ± 0.02 | 6400 | 1.0 | 0.79 ± 0.13 | 0.233 ± 0.022 | 0.417 ± 0.062 | 4.16 ± 0.82 | 
COc1cc(CNC(=S)NCC(COC(=O)C(C)(C)C)Cc2ccc(C(C)(C)C)cc2)ccc1O (stereo not drawn) [sRTX, N-{3-pivaloyloxy-2-(4-t-butylbenzyl)propyl}-N′-(4-hydroxyl-3-methoxybenzyl)thiourea] |  |  |  |  |  |  |  |  | 11
